# From ChEMBL document CHEMBL3745645, “Synthesis, in vitro antitumor activity, dihydrofolate reductase inhibition, DNA intercalation and structure-activity relationship studies of 1,3,5-triazine analogues” (Bioorg Med Chem Lett, 2016)
# The source made the active and inactive calls. No cut-off for these calls is given here.
# Legend:
# Format in all cases: functional
# [1] = Cytotoxicity against human OVCAR4 cells at 10 uM after 48 hrs by SRB assay; conditions: OVCAR-4, 48 h, read-out: GI
# HT-29 = experiment: Cytotoxicity against human HT-29 cells at 10 uM after 48 hrs by SRB assay; conditions: HT-29, 48 h, read-out: GI
# [2] = Cytotoxicity against human SF268 cells at 10 uM after 48 hrs by SRB assay; conditions: SF-268, 48 h, read-out: GI
# [3] = Cytotoxicity against human HOP92 cells at 10 uM after 48 hrs by SRB assay; conditions: HOP-92, 48 h, read-out: GI
# [4] = Cytotoxicity against human RPMI8226 cells at 10 uM after 48 hrs by SRB assay; conditions: RPMI-8226, 48 h, read-out: GI
# [5] = Cytotoxicity against human SF295 cells at 10 uM after 48 hrs by SRB assay; conditions: SF-295, 48 h, read-out: GI
# K562 = experiment: Cytotoxicity against human K562 cells at 10 uM after 48 hrs by SRB assay; conditions: K562, 48 h, read-out: GI
# [6] = Cytotoxicity against human MOLT4 cells at 10 uM after 48 hrs by SRB assay; conditions: MOLT-4, 48 h, read-out: GI
# SK-MEL-2 = experiment: Cytotoxicity against human SK-MEL-2 cells at 10 uM after 48 hrs by SRB assay; conditions: SK-MEL-2, 48 h, read-out: GI
# CCRF-CEM = experiment: Cytotoxicity against human CCRF-CEM cells at 10 uM after 48 hrs by SRB assay
# A498 = experiment: Cytotoxicity against human A498 cells at 10 uM after 48 hrs by SRB assay; conditions: A498, 48 h, read-out: GI
# [7] = Cytotoxicity against human SF539 cells at 10 uM after 48 hrs by SRB assay; conditions: SF-539, 48 h, read-out: GI
# [8] = Cytotoxicity against human SNB75 cells at 10 uM after 48 hrs by SRB assay; conditions: SNB-75, 48 h, read-out: GI
# NCI-H226 = experiment: Cytotoxicity against human NCI-H226 cells at 10 uM after 48 hrs by SRB assay; conditions: NCI-H226, 48 h, read-out: GI
# [9] = Cytotoxicity against human OVCAR8 cells at 10 uM after 48 hrs by SRB assay; conditions: OVCAR-8, 48 h, read-out: GI
# SK-MEL-5 = experiment: Cytotoxicity against human SK-MEL-5 cells at 10 uM after 48 hrs by SRB assay; conditions: SK-MEL-5, 48 h, read-out: GI
# T47D = experiment: Cytotoxicity against human T47D cells at 10 uM after 48 hrs by SRB assay; conditions: read-out: GI
# [10] = Cytotoxicity against human UO31 cells at 10 uM after 48 hrs by SRB assay; conditions: UO-31, 48 h, read-out: GI
# 786-0 = experiment: Cytotoxicity against human 786-0 cells at 10 uM after 48 hrs by SRB assay; conditions: 786-0, 48 h, read-out: GI
# [11] = Cytotoxicity against human RXF393 cells at 10 uM after 48 hrs by SRB assay; conditions: RXF 393, 48 h, read-out: GI
# [12] = Cytotoxicity against human NCI-ADR-RES cells at 10 uM after 48 hrs by SRB assay; conditions: read-out: GI
# [13] = Cytotoxicity against human HL-60(TB) cells at 10 uM after 48 hrs by SRB assay; conditions: HL-60, 48 h, read-out: GI
# [14] = Cytotoxicity against human OVCAR3 cells at 10 uM after 48 hrs by SRB assay; conditions: OVCAR-3, 48 h, read-out: GI
# [15] = Cytotoxicity against human UACC257 cells at 10 uM after 48 hrs by SRB assay; conditions: UACC-257, 48 h, read-out: GI
# M14 = experiment: Cytotoxicity against human M14 cells at 10 uM after 48 hrs by SRB assay; conditions: M14, 48 h, read-out: GI
# [16] = Cytotoxicity against human HCT116 cells at 10 uM after 48 hrs by SRB assay; conditions: HCT-116, 48 h, read-out: GI
# MDA-MB-231 = experiment: Cytotoxicity against human MDA-MB-231 cells at 10 uM after 48 hrs by SRB assay; conditions: MDA-MB-231, 48 h, read-out: GI
# ACHN = experiment: Cytotoxicity against human ACHN cells at 10 uM after 48 hrs by SRB assay; conditions: read-out: GI
# [17] = Cytotoxicity against human SW620 cells at 10 uM after 48 hrs by SRB assay; conditions: SW-620, 48 h, read-out: GI
# [18] = Cytotoxicity against human HCC2998 cells at 10 uM after 48 hrs by SRB assay; conditions: HCC 2998, 48 h, read-out: GI
# OVCAR-5 = experiment: Cytotoxicity against human OVCAR5 cells at 10 uM after 48 hrs by SRB assay
# [19] = Cytotoxicity against human DU145 cells at 10 uM after 48 hrs by SRB assay; conditions: DU-145, 48 h, read-out: GI
# A549 = experiment: Cytotoxicity against human A549 cells at 10 uM after 48 hrs by SRB assay; conditions: A549, 48 h, read-out: GI
# MCF7 = experiment: Cytotoxicity against human MCF7 cells at 10 uM after 48 hrs by SRB assay; conditions: MCF7, 48 h, read-out: GI
# SN12C = experiment: Cytotoxicity against human SN12C cells at 10 uM after 48 hrs by SRB assay; conditions: read-out: GI
# [20] = Cytotoxicity against human IGROV1 cells at 10 uM after 48 hrs by SRB assay; conditions: IGROV-1, 48 h, read-out: GI
# [21] = Cytotoxicity against human BT549 cells at 10 uM after 48 hrs by SRB assay; conditions: BT-549, 48 h, read-out: GI
# [22] = Cytotoxicity against human HCT15 cells at 10 uM after 48 hrs by SRB assay; conditions: HCT-15, 48 h, read-out: GI
# NCI-H460 = experiment: Cytotoxicity against human NCI-H460 cells at 10 uM after 48 hrs by SRB assay; conditions: NCI-H460, 48 h, read-out: GI
# [23] = Cytotoxicity against human HOP62 cells at 10 uM after 48 hrs by SRB assay; conditions: HOP-62, 48 h, read-out: GI
# NCI-H522 = experiment: Cytotoxicity against human NCI-H522 cells at 10 uM after 48 hrs by SRB assay; conditions: NCI-H522, 48 h, read-out: GI
# SR = experiment: Cytotoxicity against human SR cells at 10 uM after 48 hrs by SRB assay; conditions: read-out: GI
# MDA-MB-435 = experiment: Cytotoxicity against human MDA-MB-435 cells at 10 uM after 48 hrs by SRB assay; conditions: MDA-MB-435, 48 h, read-out: GI
# CAKI-1 = experiment: Cytotoxicity against human Caki1 cells at 10 uM after 48 hrs by SRB assay
# [24] = Cytotoxicity against human SNB19 cells at 10 uM after 48 hrs by SRB assay; conditions: SNB-19, 48 h, read-out: GI
# SK-MEL-28 = experiment: Cytotoxicity against human SK-MEL-28 cells at 10 uM after 48 hrs by SRB assay; conditions: SK-MEL-28, 48 h, read-out: GI
# MDA-MB-468 = experiment: Cytotoxicity against human MDA-MB-468 cells at 10 uM after 48 hrs by SRB assay; conditions: MDA-MB-468, 48 h, read-out: GI
# [25] = Cytotoxicity against human SKOV3 cells at 10 uM after 48 hrs by SRB assay; conditions: SK-OV-3, 48 h, read-out: GI
# [26] = Cytotoxicity against human Hs 578T cells at 10 uM after 48 hrs by SRB assay; conditions: read-out: GI
# KM12 = experiment: Cytotoxicity against human KM12 cells at 10 uM after 48 hrs by SRB assay; conditions: KM12, 48 h, read-out: GI
# U-251 = experiment: Cytotoxicity against human U251 cells at 10 uM after 48 hrs by SRB assay; conditions: U-251, 48 h, read-out: GI
# [27] = Cytotoxicity against human TK10 cells at 10 uM after 48 hrs by SRB assay; conditions: TK-10, 48 h, read-out: GI
# [28] = Cytotoxicity against human COLO205 cells at 10 uM after 48 hrs by SRB assay; conditions: COLO 205, 48 h, read-out: GI
# [29] = Cytotoxicity against human LOXIMVI cells at 10 uM after 48 hrs by SRB assay; conditions: LOX IMVI, read-out: GI
# Malme-3M = experiment: Cytotoxicity against human MALME-3M cells at 10 uM after 48 hrs by SRB assay; conditions: read-out: GI
smiles,measurement,setting,value
Cc1nc2cc(Nc3nc(Nc4ccc(F)cc4)nc(-c4ccccc4)n3)ccc2n1Cc1ccccc1,inhibition of growth at 10 µM,[1],39.8%
same,inhibition of growth at 10 µM,HT-29,40.6%
same,inhibition of growth at 10 µM,[2],23.8%
same,inhibition of growth at 10 µM,[3],35.6%
same,inhibition of growth at 10 µM,[4],53%
same,inhibition of growth at 10 µM,[5],17.3%
same,inhibition of growth at 10 µM,K562,38.2%
same,inhibition of growth at 10 µM,[6],41.8%
same,inhibition of growth at 10 µM,SK-MEL-2,25.4%
same,growth inhibition (GI),CCRF-CEM,inactive
same,inhibition of growth at 10 µM,A498,23.2%
same,inhibition of growth at 10 µM,[7],0.21%
same,inhibition of growth at 10 µM,[8],28.4%
same,inhibition of growth at 10 µM,NCI-H226,19.3%
same,inhibition of growth at 10 µM,[9],32.2%
same,inhibition of growth at 10 µM,SK-MEL-5,14.5%
same,inhibition of growth at 10 µM,T47D,55.5%
same,inhibition of growth at 10 µM,[10],43.4%
same,inhibition of growth at 10 µM,786-0,18.4%
same,inhibition of growth at 10 µM,[11],30.9%
same,inhibition of growth at 10 µM,[12],29.5%
same,inhibition of growth at 10 µM,[13],36.3%
same,inhibition of growth at 10 µM,[14],18.8%
same,inhibition of growth at 10 µM,[15],18.7%
same,inhibition of growth at 10 µM,M14,34.1%
same,inhibition of growth at 10 µM,[16],39.7%
same,inhibition of growth at 10 µM,MDA-MB-231,9.76%
same,inhibition of growth at 10 µM,ACHN,23.6%
same,inhibition of growth at 10 µM,[17],15.4%
same,inhibition of growth at 10 µM,[18],12%
same,growth inhibition (GI),OVCAR-5,inactive
same,inhibition of growth at 10 µM,[19],2.93%
same,inhibition of growth at 10 µM,A549,32.5%
same,inhibition of growth at 10 µM,MCF7,54.9%
same,inhibition of growth at 10 µM,SN12C,21.9%
same,inhibition of growth at 10 µM,[20],31%
same,inhibition of growth at 10 µM,[21],4.6%
same,inhibition of growth at 10 µM,[22],32.4%
same,inhibition of growth at 10 µM,NCI-H460,16.8%
same,inhibition of growth at 10 µM,[23],5.32%
same,inhibition of growth at 10 µM,NCI-H522,24.1%
same,inhibition of growth at 10 µM,SR,68.2%
same,inhibition of growth at 10 µM,MDA-MB-435,40%
same,growth inhibition (GI),CAKI-1,inactive
same,inhibition of growth at 10 µM,[24],31.5%
same,inhibition of growth at 10 µM,SK-MEL-28,5.63%
same,inhibition of growth at 10 µM,MDA-MB-468,27.6%
same,inhibition of growth at 10 µM,[25],1.78%
same,inhibition of growth at 10 µM,[26],20.4%
same,inhibition of growth at 10 µM,KM12,39.8%
same,inhibition of growth at 10 µM,U-251,36.6%
same,inhibition of growth at 10 µM,[27],0.81%
same,inhibition of growth at 10 µM,[28],29.5%
same,inhibition of growth at 10 µM,[29],12.3%
same,inhibition of growth at 10 µM,Malme-3M,11.4%
